The values below come from PubChem BioAssay AID248 (DTP/NCI, 2004).

This test has as its system L1210 leukemia ip in BDF1 mice, survival T/C. Description: NCI In Vivo Anticancer Drug Screen. Data for tumor model L1210 Leukemia (intraperitoneal) in B6D2F1 (BDF1) mice. Particulars: endpoint: mean survival time, higher = longer survival. An outline of the steps: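 Transplantable tumor model; survival measured in treated vs vehicle control mice. Value = treated/control.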

The mark [1] stands for this setting: dose: 100.0 mg/kg/injection, schedule: Q01DX009 (ip), vehicle: saline.
Where [2] appears, read: dose: 100.0 mg/kg/injection, schedule: Q04DX003 (ip), vehicle: saline with Tween-80.
The mark [3] stands for this setting: dose: 200.0 mg/kg/injection, schedule: Q01DX009 (ip), vehicle: saline.
Where [4] appears, read: dose: 200.0 mg/kg/injection, schedule: Q04DX003 (ip), vehicle: saline with Tween-80.
The mark [5] stands for this setting: dose: 400.0 mg/kg/injection, schedule: Q01DX009 (ip), vehicle: saline.
[6] abbreviates: dose: 400.0 mg/kg/injection, schedule: Q04DX003 (ip), vehicle: saline with Tween-80.
The mark [7] stands for this setting: dose: 6.25 mg/kg/injection, schedule: Q01DX009 (ip), vehicle: Klucel (hydroxypropylcellulose) (HPC).
The mark [8] stands for this setting: dose: 12.5 mg/kg/injection, schedule: Q01DX009 (ip), vehicle: Klucel (hydroxypropylcellulose) (HPC).
Where [9] appears, read: dose: 50.0 mg/kg/injection, schedule: Q01DX001 (ip), vehicle: saline.
Setting [10] is: dose: 100.0 mg/kg/injection, schedule: Q01DX001 (ip), vehicle: saline.
Where [11] appears, read: dose: 200.0 mg/kg/injection, schedule: Q01DX001 (ip), vehicle: saline.
The mark [12] stands for this setting: dose: 400.0 mg/kg/injection, schedule: Q01DX001 (ip), vehicle: saline.
[13] abbreviates: dose: 50.0 mg/kg/injection, schedule: Q01DX009 (ip), vehicle: Klucel (hydroxypropylcellulose) (HPC).
Setting [14] is: dose: 100.0 mg/kg/injection, schedule: Q01DX009 (ip), vehicle: Klucel (hydroxypropylcellulose) (HPC).
Setting [15] is: dose: 200.0 mg/kg/injection, schedule: Q01DX009 (ip), vehicle: Klucel (hydroxypropylcellulose) (HPC).
[16] abbreviates: dose: 400.0 mg/kg/injection, schedule: Q01DX009 (ip), vehicle: Klucel (hydroxypropylcellulose) (HPC).
Where [17] appears, read: dose: 100.0 mg/kg/injection, schedule: Q04DX003 (ip), vehicle: saline.
Where [18] appears, read: dose: 100.0 mg/kg/injection, schedule: Q04DX003 (ip), vehicle: Klucel (hydroxypropylcellulose) (HPC).
The mark [19] stands for this setting: dose: 200.0 mg/kg/injection, schedule: Q04DX003 (ip), vehicle: Klucel (hydroxypropylcellulose) (HPC).

SMILES strings stand for the structures. Toxic doses and inconclusive results are not listed.

Regarding `CCCCOCC(=O)OCCCC`, the T/C is, setting by setting: under setting [1], 103 % of control; under setting [2], 93 % of control; under setting [3], 105 % of control; under setting [4], 94 % of control; under setting [5], 87 % of control; under setting [6], 93 % of control.
For `O=C1c2cccc3cccc(c23)C(=O)N1CCN1C(=O)c2cccc3cccc(c23)C1=O`, the T/C is, setting by setting: (dose: 3.13 mg/kg/injection, schedule: Q01DX009 (ip), vehicle: Klucel (hydroxypropylcellulose) (HPC)) 100 % of control; under setting [7], 103 % of control; under setting [8], 100 % of control.
As to `CC(=O)Nc1ccc(I)cc1C(=O)O`, the T/C runs as follows: (dose: 50.0 mg/kg/injection, schedule: Q01DX001 (ip), vehicle: carboxymethylcellulose (CMC)) 96 % of control; (dose: 100.0 mg/kg/injection, schedule: Q01DX001 (ip), vehicle: carboxymethylcellulose (CMC)) 91 % of control; (dose: 200.0 mg/kg/injection, schedule: Q01DX001 (ip), vehicle: carboxymethylcellulose (CMC)) 91 % of control.
With `CC(=O)c1cn(C2CC(O)C(CO)O2)c(=O)[nH]c1=O` (stereo unspecified), the T/C is, setting by setting: under setting [9], 117 % of control; (dose: 50.0 mg/kg/injection, schedule: Q04DX002 (ip), vehicle: saline) 96 % of control; under setting [10], 111 % of control; (dose: 100.0 mg/kg/injection, schedule: Q04DX002 (ip), vehicle: saline) 105 % of control; under setting [11], 105 % of control; (dose: 200.0 mg/kg/injection, schedule: Q04DX002 (ip), vehicle: saline) 121 % of control.
Consider `Cc1ccc(C)c(N(c2ccccc2N)S(C)(=O)=O)c1`, for which the T/C under setting [9] was 95 % of control, the T/C under setting [10] was 95 % of control, the T/C under setting [11] is 101 % of control and the T/C under setting [12] was 90 % of control.
Consider `CC(C)Oc1ccc(Nc2ccccc2)cc1`, for which the T/C runs as follows: under setting [13], 100 % of control; under setting [10], 96 % of control; under setting [14], 99 % of control; under setting [11], 107 % of control; under setting [15], 100 % of control; under setting [12], 88 % of control.
For the molecule `CCOC(=O)C(N)Cc1ccc(OC)c(N(CCCl)CCCl)c1` (stereo unspecified), the T/C runs as follows: (dose: 0.21 mg/kg/injection, schedule: Q01DX009 (ip), vehicle: carboxymethylcellulose (CMC)) 112 % of control; (dose: 0.32 mg/kg/injection, schedule: Q01DX009 (ip), vehicle: carboxymethylcellulose (CMC)) 112 % of control; (dose: 0.48 mg/kg/injection, schedule: Q01DX009 (ip), vehicle: carboxymethylcellulose (CMC)) 122 % of control; (dose: 0.75 mg/kg/injection, schedule: Q01DX009 (ip), vehicle: carboxymethylcellulose (CMC)) 112 % of control; (dose: 1.1 mg/kg/injection, schedule: Q01DX009 (ip), vehicle: carboxymethylcellulose (CMC)) 154 % of control; (dose: 1.5 mg/kg/injection, schedule: Q01DX001 (ip), vehicle: carboxymethylcellulose (CMC)) 115 % of control. For the same molecule, the T/C (dose: 1.5 mg/kg/injection, schedule: Q01DX009 (ip), vehicle: carboxymethylcellulose (CMC)) was 155 % of control; the T/C (dose: 1.7 mg/kg/injection, schedule: Q01DX009 (ip), vehicle: carboxymethylcellulose (CMC)) is 160 % of control; the T/C (dose: 2.6 mg/kg/injection, schedule: Q01DX001 (ip), vehicle: carboxymethylcellulose (CMC)) was 119 % of control; the T/C (dose: 2.6 mg/kg/injection, schedule: Q01DX009 (ip), vehicle: carboxymethylcellulose (CMC)) was 160 % of control; the T/C (dose: 3.0 mg/kg/injection, schedule: Q01DX001 (ip), vehicle: carboxymethylcellulose (CMC)) is 117 % of control; the T/C (dose: 3.0 mg/kg/injection, schedule: Q01DX009 (ip), vehicle: carboxymethylcellulose (CMC)) is 121 % of control. Moreover, the T/C by setting is: (dose: 4.0 mg/kg/injection, schedule: Q01DX009 (ip), vehicle: carboxymethylcellulose (CMC)) 120 % of control; (dose: 9.0 mg/kg/injection, schedule: Q01DX001 (ip), vehicle: carboxymethylcellulose (CMC)) 164 % of control.
For the molecule `CC(=O)c1cccc(NC(=O)CCCCCCCCC(=O)Nc2cccc(C(C)=O)c2)c1`, the T/C was 96 % of control under setting [14], 91 % of control under setting [15] and 94 % of control under setting [16].
`O=C(O)/C=C(/Cl)c1ccccc1`: the T/C was 102 % of control under setting [2], 100 % of control under setting [4] and 108 % of control under setting [6].
As to `Nc1ncnc2c1ncn2C1OC(CF)C(O)C1O` (stereo unspecified), the T/C is 101 % of control (dose: 50.0 mg/kg/injection, schedule: Q01DX009 (ip), vehicle: saline); 100 % of control under setting [1]; 114 % of control under setting [3].
For the molecule `CC[N+]1(CC)CCOC(=O)C1`, the T/C by setting is: under setting [1], 95 % of control; under setting [17], 109 % of control; under setting [3], 93 % of control; (dose: 200.0 mg/kg/injection, schedule: Q04DX003 (ip), vehicle: saline) 101 % of control; under setting [5], 94 % of control; (dose: 400.0 mg/kg/injection, schedule: Q04DX003 (ip), vehicle: saline) 101 % of control.
On to `COC(=O)C1C2CC3c4[nH]c5cc(OC)ccc5c4CCN3CC2CC(OC(=O)c2cc(OC)c(OC)c(OC)c2)C1OC` (stereo unspecified), for which the T/C runs as follows: under setting [7], 94 % of control; under setting [8], 96 % of control; (dose: 25.0 mg/kg/injection, schedule: Q01DX009 (ip), vehicle: Klucel (hydroxypropylcellulose) (HPC)) 105 % of control; (dose: 25.0 mg/kg/injection, schedule: Q04DX003 (ip), vehicle: saline) 106 % of control; under setting [13], 113 % of control; (dose: 50.0 mg/kg/injection, schedule: Q04DX003 (ip), vehicle: saline) 119 % of control. Also, under setting [17], the T/C is 111 % of control.
In the case of `COc1cc(C=O)ccc1OC(=O)Nc1cccc(Cl)c1C`, the T/C was 97 % of control under setting [14], 97 % of control under setting [15] and 103 % of control under setting [16].
As for `[B-][NH2+]c1ccc([NH2+][B-])cc1`, the T/C under setting [10] is 96 % of control, the T/C under setting [11] is 91 % of control and the T/C under setting [12] is 100 % of control.
Take `COc1ccnc(SCc2ccccc2)n1`: the T/C under setting [14] was 97 % of control; the T/C under setting [18] was 100 % of control; the T/C under setting [15] is 95 % of control; the T/C under setting [19] is 100 % of control; the T/C (dose: 400.0 mg/kg/injection, schedule: Q04DX003 (ip), vehicle: Klucel (hydroxypropylcellulose) (HPC)) was 102 % of control.
As for `O=C1CNC(=O)N1c1cccc(Cl)c1`, the T/C under setting [2] is 100 % of control, the T/C under setting [4] was 100 % of control and the T/C under setting [6] is 102 % of control.
As for `CN(C)/C(=C/c1ccccc1)CS(=O)(=O)N(C)C`, the T/C was 106 % of control (dose: 75.0 mg/kg/injection, schedule: Q01DX001 (ip), vehicle: carboxymethylcellulose (CMC)); 97 % of control (dose: 150.0 mg/kg/injection, schedule: Q01DX001 (ip), vehicle: carboxymethylcellulose (CMC)); 89 % of control (dose: 300.0 mg/kg/injection, schedule: Q01DX001 (ip), vehicle: carboxymethylcellulose (CMC)).
With `O=C(O)C(Cc1ccccc1)C(=O)O.[NH2-].[NH2-].[Pt+2]`, the T/C is, setting by setting: (dose: 25.0 mg/kg/injection, schedule: Q04DX003 (ip), vehicle: Klucel (hydroxypropylcellulose) (HPC)) 102 % of control; (dose: 50.0 mg/kg/injection, schedule: Q04DX003 (ip), vehicle: Klucel (hydroxypropylcellulose) (HPC)) 98 % of control; under setting [18], 119 % of control; under setting [19], 104 % of control.
For the molecule `CCCCCCC(O)C/C=C/CCCCCCCC(=O)O` (stereo unspecified), the T/C (dose: 100.0 mg/kg/injection, schedule: Q04DX002 (ip), vehicle: Klucel (hydroxypropylcellulose) (HPC)) was 96 % of control; the T/C (dose: 200.0 mg/kg/injection, schedule: Q04DX002 (ip), vehicle: Klucel (hydroxypropylcellulose) (HPC)) is 93 % of control; the T/C (dose: 400.0 mg/kg/injection, schedule: Q04DX002 (ip), vehicle: Klucel (hydroxypropylcellulose) (HPC)) was 86 % of control.
As for `CC(C)C1CCC(C)C(NC(N)=O)C1` (stereo unspecified), the T/C runs as follows: under setting [10], 95 % of control; under setting [11], 97 % of control; under setting [12], 106 % of control.
